Measurements reported in ChEMBL document CHEMBL3885881, “DrugMatrix”.

Organism: Rattus norvegicus
Assay: DrugMatrix - Regimen: Daily Repeat
Assay type: toxicity, organism-based, Sprague-Dawley
Design: regimen Daily Repeat, gender Male, age 6-8 weeks
Conditions: in vivo, po, 38 mg/kg, route oral GAVAGE, dose level Low, vehicle 100 % WATER; for BASOPHIL / EOSINOPHIL / ERYTHROCYTE COUNT / HEMATOCRIT / HEMOGLOBIN / LEUKOCYTE COUNT / LYMPHOCYTE / MEAN CORPUSCULAR HEMOGLOBIN / MEAN CORPUSCULAR HEMOGLOBIN CONCENTRATION / MEAN CORPUSCULAR VOLUME / MONOCYTE / NEUTROPHIL / PLATELET COUNT: tissue Blood; for ALANINE AMINOTRANSFERASE / ALBUMIN / ALKALINE PHOSPHATASE / ASPARTATE AMINOTRANSFERASE / BLOOD UREA NITROGEN / CARBON DIOXIDE / CHLORIDE / CHOLESTEROL / CREATINE PHOSPHOKINASE / CREATININE / GLUCOSE / LACTATE DEHYDROGENASE / LIPASE / PHOSPHORUS / POTASSIUM / SODIUM / TOTAL BILIRUBIN / TOTAL PROTEIN / URIC ACID: tissue Plasma

SMILES: O=C(O)C1CC1 [CYCLOPROPANE CARBOXYLIC ACID]
- BASOPHIL (72 h, time 3 day): 0%
- EOSINOPHIL (72 h, time 3 day): 0.67%
- ERYTHROCYTE COUNT (72 h, time 3 day): 7.06 x10E6/uL
- HEMATOCRIT (72 h, time 3 day): 43.67%
- HEMOGLOBIN (72 h, time 3 day): 14.6 G/DL
- LEUKOCYTE COUNT (72 h, time 3 day): 8.63 x10E3/uL
- LYMPHOCYTE (72 h, time 3 day): 83.67%
- MEAN CORPUSCULAR HEMOGLOBIN (72 h, time 3 day): 20.67 pg
- MEAN CORPUSCULAR HEMOGLOBIN CONCENTRATION (72 h, time 3 day): 33.47 G/DL
- MEAN CORPUSCULAR VOLUME (72 h, time 3 day): 61.77 fL
- MONOCYTE (72 h, time 3 day): 2.33%
- NEUTROPHIL (72 h, time 3 day): 13.33%
- PLATELET COUNT (72 h, time 3 day): 1012 x10E3/uL
- ALANINE AMINOTRANSFERASE (72 h, time 3 day): 44.67 u/L
- ALBUMIN (72 h, time 3 day): 4.37 G/DL
- ALKALINE PHOSPHATASE (72 h, time 3 day): 346.67 u/L
- ASPARTATE AMINOTRANSFERASE (72 h, time 3 day): 72.33 u/L
- BLOOD UREA NITROGEN (72 h, time 3 day): 15 mg/dL
- CARBON DIOXIDE (72 h, time 3 day): 23 mmol/L
- CHLORIDE (72 h, time 3 day): 103.67 MEQ/L
- CHOLESTEROL (72 h, time 3 day): 65.67 mg/dL
- CREATINE PHOSPHOKINASE (72 h, time 3 day): 241.33 u/L
- CREATININE (72 h, time 3 day): 0.3 mg/dL
- GLUCOSE (72 h, time 3 day): 151 mg/dL
- LACTATE DEHYDROGENASE (72 h, time 3 day): 152.33 u/L
- LIPASE (72 h, time 3 day): 9 u/L
- PHOSPHORUS (72 h, time 3 day): 9.83 mg/dL
- POTASSIUM (72 h, time 3 day): 5.7 MEQ/L
- SODIUM (72 h, time 3 day): 145.67 MEQ/L
- TOTAL BILIRUBIN (72 h, time 3 day): 0.1 mg/dL
- TOTAL PROTEIN (72 h, time 3 day): 6.03 G/DL
- URIC ACID (72 h, time 3 day): 1.1 mg/dL
- BASOPHIL (120 h, time 5 day): 0.33%
- EOSINOPHIL (120 h, time 5 day): 1%
- ERYTHROCYTE COUNT (120 h, time 5 day): 7.12 x10E6/uL
- HEMATOCRIT (120 h, time 5 day): 44.63%
- HEMOGLOBIN (120 h, time 5 day): 14.4 G/DL
- LEUKOCYTE COUNT (120 h, time 5 day): 10.9 x10E3/uL
- LYMPHOCYTE (120 h, time 5 day): 85%
- MEAN CORPUSCULAR HEMOGLOBIN (120 h, time 5 day): 20.2 pg
- MEAN CORPUSCULAR HEMOGLOBIN CONCENTRATION (120 h, time 5 day): 32.27 G/DL
- MEAN CORPUSCULAR VOLUME (120 h, time 5 day): 62.67 fL
- MONOCYTE (120 h, time 5 day): 2.33%
- NEUTROPHIL (120 h, time 5 day): 12.33%
- PLATELET COUNT (120 h, time 5 day): 970.67 x10E3/uL
- ALANINE AMINOTRANSFERASE (120 h, time 5 day): 47.33 u/L
- ALBUMIN (120 h, time 5 day): 4.6 G/DL
- ALKALINE PHOSPHATASE (120 h, time 5 day): 373.67 u/L
- ASPARTATE AMINOTRANSFERASE (120 h, time 5 day): 86 u/L
- BLOOD UREA NITROGEN (120 h, time 5 day): 17.33 mg/dL
- CARBON DIOXIDE (120 h, time 5 day): 20.67 mmol/L
- CHLORIDE (120 h, time 5 day): 99.33 MEQ/L
- CHOLESTEROL (120 h, time 5 day): 73.67 mg/dL
- CREATINE PHOSPHOKINASE (120 h, time 5 day): 418 u/L
- CREATININE (120 h, time 5 day): 0.3 mg/dL
- GLUCOSE (120 h, time 5 day): 133.33 mg/dL
- LACTATE DEHYDROGENASE (120 h, time 5 day): 454 u/L
- LIPASE (120 h, time 5 day): 9 u/L
- PHOSPHORUS (120 h, time 5 day): 10.13 mg/dL
- POTASSIUM (120 h, time 5 day): 5.37 MEQ/L
- SODIUM (120 h, time 5 day): 143.33 MEQ/L
- TOTAL BILIRUBIN (120 h, time 5 day): 0.1 mg/dL
- TOTAL PROTEIN (120 h, time 5 day): 6.53 G/DL
- URIC ACID (120 h, time 5 day): 1.03 mg/dL
